Results on two compounds are retold here after patent EP4692086A1, “ANTICOAGULATION REVERSAL AGENT, AND PREPARATION METHOD THEREFOR AND USE THEREOF” (Shaanxi Micot Pharmaceutical Technology Co., Ltd., priority 2023, dated 2024).

What all share (assay type): in vivo, SD rats
Assay [1] relates to heparin-induced rats. In words: Hepatic laceration hemorrhage model, antagonizing heparin. Particulars: for Hepatic Laceration Bleeding Loss: bleeding loss over 30 min.
The subject of assay [2] is warfarin-induced rats. The experiment in a line: Hepatic laceration hemorrhage model, antagonizing warfarin. Particulars: for Hepatic Laceration Bleeding Loss: jugular vein injection, bleeding loss over 30 min; for Inhibition Rate: hepatic laceration bleeding loss, vs Vehicle (warfarin). As for the experimental part:
Hepatic laceration hemorrhage model: In all groups except for Control group and Compound 1 20 mg/kg+N.S. control group, SD rats were administered warfarin by oral gavage once daily for 3 consecutive days. 30 min after the final administration, the rats were injected with 10% chloral hydrate via intraperitoneal injection. The anaesthetized animals were placed on an electric heating blanket preheated to 37°C. Jugular vein was isolated and cannulated within 30 min. Aspirin was administered and 30 min later, test substances were injected via the jugular vein. 5 min after injection, the abdominal cavity was opened, and 3 standard incisions, each with a length of 1 cm and a depth of 2 mm, were made on the liver. Blood flowing from the liver was absorbed with pre-weighed dry cotton, and bleeding loss (BL) over 30 min was recorded.

Assay [3] deals with enoxaparin-induced rats. The experiment in a line: Tail transection hemorrhage model, antagonizing enoxaparin. Particulars: bleeding loss over 15 min. As for the experimental part: (§1) Tail transection hemorrhage model: […] The anaesthetized animals were placed on an electric heating blanket preheated to 37°C. Jugular vein was isolated and cannulated within 30 min. Normal saline or drug was injected via the jugular vein. 5 min after injection, a transection was made 5 mm away from the tip of the rat's tail. Bleeding loss (BL) over 15 min was recorded. Temperatures including room temperature and water bath temperature were strictly controlled throughout the experiment.

The test system of assay [4] is warfarin-induced rats. In words: Tail transection hemorrhage model, antagonizing warfarin (bleeding loss and WBCT). Particulars: for Tail Transection Bleeding Loss: jugular vein injection, bleeding loss over 15 min. As for the experimental part: Tail transection hemorrhage model: In all groups except for Control group and Compound 1 20 mg/kg+N.S. control group, SD rats were administered warfarin by oral gavage once daily for 3 consecutive days. 30 min after the final administration, the rats were injected with 10% chloral hydrate via intraperitoneal injection. The anaesthetized animals were placed on an electric heating blanket preheated to 37°C. Jugular vein was isolated and cannulated within 30 min. Normal saline or drug was injected via the jugular vein. 5 min after injection, a transection was made 5 mm away from the tip of the rat's tail. Bleeding loss (BL) over 15 min was recorded. At the end of the experiment, blood was collected from the abdominal cavity and WBCT was measured. Temperatures including room temperature and water bath temperature were strictly controlled throughout the experiment.

Assay [5] relates to heparin-induced rats. In words: Tail transection hemorrhage model, antagonizing heparin. Particulars: bleeding loss over 15 min. As for the experimental part:
as §1

The subject of assay [6] is enoxaparin-induced rats. The experiment in a line: Hepatic laceration hemorrhage model, antagonizing enoxaparin. Particulars: for Hepatic Laceration Bleeding Loss: bleeding loss over 30 min; for Inhibition Rate: hepatic laceration bleeding loss, vs Vehicle (enoxaparin).
The mark [7] stands for this setting: 10 mg/kg+heparin, listed as compound 1.
The mark [8] stands for this setting: 5 mg/kg+enoxaparin, listed as compound 1.
Where [9] appears, read: 20 mg/kg+warfarin, blood collected at the end of the experiment.
Where [10] appears, read: Rattus norvegicus, read-out: Inhibition Rate.

As to `N=C(N)NCCCC(N)C(=O)NCCCn1c(=O)c2c(ncn2CCCNC(=O)C(N)CCCNC(=N)N)n(CCCNC(=O)C(N)CCCNC(=N)N)c1=O` (stereo not drawn) [Compound 1], the “Hepatic Laceration Bleeding Loss” value in assay [1] (5 mg/kg+heparin) is 0.3217 ± 0.0919 g; in assay [1] (10 mg/kg+heparin), 0.1794+0.0966 g; in assay [1] (setting [7]), “significantly reduced”; in assay [1] (20 mg/kg+heparin), 0.0560+0.0408 g; in assay [2] (5 mg/kg+warfarin), 0.3029 ± 0.1189 g; in assay [2] (10 mg/kg+warfarin), 0.2379 ± 0.1613 g. For the same compound, the “Hepatic Laceration Bleeding Loss” value in assay [2] (20 mg/kg+warfarin) was 0.0784 ± 0.0346 g; in assay [6] (0.2 mg/kg+enoxaparin), 0.5253 ± 0.2034 g; in assay [6] (1 mg/kg+enoxaparin), 0.1674 ± 0.0734 g; in assay [6] (1 mg/kg+enoxaparin, listed as compound 1), “significantly reduced”; in assay [6] (5 mg/kg+enoxaparin) it was 0.0490 ± 0.0184 g; in assay [6] (setting [8]) it was “significantly reduced”. In assay [1] (10 mg/kg compound 1 (so in the source)+heparin, compared to the Vehicle group), the “inhibition rate for hepatic laceration bleeding loss” value is listed as 88.9%. The “inhibited hepatic laceration bleeding loss” value in assay [2] (20 mg/kg+warfarin, compared to the Vehicle group) was determined as 72.1%. For the same compound, the “Inhibition Rate” value is given as -7.9 in assay [2] (5 mg/kg+warfarin); 15.3 in assay [2] (10 mg/kg+warfarin); 72.1 in assay [2] (20 mg/kg+warfarin); -17.1% in assay [6] (0.2 mg/kg+enoxaparin); 62.7% in assay [6] (1 mg/kg+enoxaparin); 89.1% in assay [6] (5 mg/kg+enoxaparin). The “Tail Transection Bleeding Loss” value in assay [3] (0.2 mg/kg+enoxaparin) is 0.0903 ± 0.0426 g; in assay [3] (1 mg/kg+enoxaparin), 0.0302 ± 0.0147 g; in assay [3] (5 mg/kg+enoxaparin), 0.0158 ± 0.0083 g; in assay [3] (setting [8]) it was “superior to the 20 mg/kg PER977 group”; in assay [4] (20 mg/kg+warfarin), 0.0143 ± 0.0108 g; in assay [4] (20 mg/kg+warfarin, listed as compound 1), “significantly reduced”. Further, the “Tail Transection Bleeding Loss” value in assay [5] (5 mg/kg+heparin) was 38.3625 ± 12.6991 mg; in assay [5] (10 mg/kg+heparin) it was 19.9375 ± 22.3215 mg; in assay [5] (setting [7]), “significantly reduced”; in assay [5] (20 mg/kg+heparin), 12.1125 ± 6.6714 mg. For the same compound, the WBCT result is “no significant changes” in assay [4] (20 mg/kg+N.S. (no warfarin), compared to the Control group); 490 ± 99 s in assay [4] (setting [9]); “significantly shortened” in assay [4] (20 mg/kg+warfarin, blood collected at the end of the experiment, listed as compound 1).

Take `N=C(N)NCCC[C@H](N)C(=O)NCCCN1CCN(CCCNC(=O)[C@@H](N)CCCNC(=N)N)CC1` [PER977, diarginine piperazine, reference compound]: the “Hepatic Laceration Bleeding Loss” value in assay [1] (20 mg/kg+heparin) is 0.0511 ± 0.0444 g; in assay [2] (20 mg/kg+warfarin), 0.0874 ± 0.0292 g; in assay [6] (20 mg/kg+enoxaparin), 0.0420 ± 0.0244 g. For the same compound, the inhibition at 20 mg/kg turned out to be 68.9% in assay [2] (setting [10]) and 90.6% in assay [6] (setting [10]). For the same compound, the results for the “Tail Transection Bleeding Loss” value in assay [3] (20 mg/kg+enoxaparin), in assay [4] (20 mg/kg+warfarin) and in assay [5] (20 mg/kg+heparin) were 0.0228 ± 0.0155 g, 0.0276 ± 0.0123 g and 17.9000 ± 11.6004 mg, respectively. For the same compound, the WBCT in assay [4] (setting [9]) was determined as 471 ± 101 s.

What is called inhibition is the percentage by which the read-out fell short of the control.
